Laboratory results: US20130224110A1, “USE OF ADENOSINE RECEPTOR SIGNALING TO MODULATE PERMEABILITY OF BLOOD-BRAIN BARRIER” (CORNELL UNIVERSITY, priority 2010, published 2013)

Legend:
blood brain barrier [1] = assay: Fluorescently labeled dextran extravasation into mouse brain (fluorimetry); type: in vivo, mice
Protocol: (§1) The adenosine receptor agonists NECA, CCPA, CGS 21860, and SCH 58261 (Tocris, Ellisville, Mo.) were each dissolved in DMSO then diluted in PBS to the desired concentration; in most cases final DMSO concentrations were <0.5% (vol/vol). Lexiscan (Regadenoson; TRC, Inc., Toronto) was dissolved in PBS. For vehicle controls, DMSO was diluted in PBS to the same concentration. Dehydrated dextrans labeled with either FITC or Texas Red (Invitrogen, Carlsbad, Calif.) were re-suspended in PBS to 10 mg/ml. All experiments involving dextran injection used 1.0 mg dextran in PBS. In experiments where drug and dextran were injected concomitantly, 1.0 mg of dextran was mixed with the drug to the desired concentration in a final volume of 200 μl. In dose-response experiments, drugs and dextrans were injected concomitantly. All injections, except injections of SCH 58261, were retro-orbital i.v. with a 27-gauge needle. In the SCH 58261 experiment, SCH 58261 injections, 1 mg/kg, were intraperitoneal and mice were pre-dosed with this concentration daily for 4 days prior to the day of the experiment. An additional injection was administered at the time of the experiment. Vehicle/drug and dextrans were injected on day 5 and tissues were collected 3 h after vehicle/drug administration. In Lexiscan experiments, Lexiscan was administered i.v. with 3 injections, 5 min apart and tissues were collected at 15 min unless otherwise indicated.
In dose-response experiments and experiments with the A1 AR and A2A AR knock-out mice, drugs and dextrans were injected concomitantly. After 3 h, the mice were anesthetized with ketamine/xylazine and subjected to a nose cone containing isoflurane. They were perfused with 25-50 ml ice-cold PBS through the left ventricle of the heart then decapitated. Their brains were removed, weighed and frozen for later analysis.
(§2) Ice-cold 50 mMTris-Cl (pH 7.6) was added to frozen brains (100 μl per 100 mg brain) and were to thawed on ice. They were homogenized with a dounce homogenizer and centrifuged at […] in a microfuge for 30 min at room temperature (rt). The supernatants were transferred to new tubes and an equal volume absolute methanol was added. The samples were centrifuged again at […] for 30 min at rt. Supernatant (200 μl) was transferred to a Corning costar 96 well black polystyrene assay plate (clear bottom). Additionally, a series of standards containing 0.001-10 pg/ml dextran in 50% Tris-Cl/50% absolute methanol (vol/vol) was added to each plate. Absolute concentrations of dextrans were derived from these standard curves. Fluorimetric analysis was performed on a BioTek (Winooski, Vt.) Synergy 4. FITC-dextran was detected at 488/519 (excitation/emission) and Texas Red-dextran was detected at 592/618.

blood brain barrier [2] = assay: Fluorescently labeled dextran extravasation into rat brain (fluorimetry); type: in vivo; details: rats
Protocol: as §1
as §2, with “Additionally, a series of standards containing 0.001-10 pg/ml dextran in 50% Tris-Cl/50% absolute methanol (vol/vol) was added to each plate. Absolute concentrations of dextrans were derived from these standard curves. Fluorimetric analysis was performed on a BioTek (Winooski, Vt.) Synergy 4.” left out

Bend.3 cells [3] = assay: Transendothelial cell electrical resistance (TEER) assay; type: cell-based; details: mouse BEC monolayers, 1 μM, vs vehicle or media alone
Protocol: Bend.3 cells were grown in ATCC-formulated DMEM supplemented with 10% FBS on 24-well transwell inserts, 8 μm pore size (BD Falcon, Bedford, Mass.) until a monolayer was established. TEER was assessed using a Voltohmeter (EVOMX, World Precision Instruments, Sarasota, Fla.). Background resistance from un-seeded transwells was subtracted from recorded values to determine absolute TEER values. Change in absolute TEER from T0 for each individual transwell was expressed as percentage change and then averaged for each treatment group.

Bend.3 cells [4] = assay: Albumin uptake assay; type: cell-based, mouse; details: BECs, 1 μM, 30 minutes, vs media and vehicle
Protocol: Bend.3 cells grown on collagen coated coverslips were incubated with albumin-alexafluor 594 (50 mg/ml) (Invitrogen) and either media alone, DMSO vehicle, NECA (1 μM), or Lexiscan (1 μM) for 30 minutes. Albumin uptake was visualized (albumin=red) utilizing the Zeiss Axio Imager M1 fluorescent microscope. Total albumin fluorescence was recorded using Zeiss Axio Vision software, and measured utilizing Image-J software.

Bend.3 cells [5] = assay: F-actin (phalloidin) staining of endothelial cells; type: cell-based, mouse; details: BECs, 1 μM, 3 or 30 min, vs vehicle
Protocol: Bend.3 cells were grown (as described above) on circular cover slips in 24-well plates. Cells were treated for 3 or 30 min with 1 μM CCPA, 1 μM […], DMSO or media alone. Cover slips were washed with PBS, fixed in 4% paraformaldahyde, washed again in PBS and then permeabilized with 0.5% TritonX-100 in PBS. After washing in PBS/1% BSA, cover slips were blocked with 1% BSA then stained with Phallodin-Alexa 568. Cover slips were washed and mounted on slides with ProlongGold containing DAPI (Invitrogen). Images were obtained on an Olympus BX51 fluorescent microscope.

Bend.3 cells [6] = assay: Tight junction molecule staining (ZO-1, Claudin-5, Occludin); type: cell-based, mouse; details: 1 μM, 1 h
Protocol: Bend.3 cells grown on collagen coated coverslips were incubated with DMSO vehicle, NECA (1 μM), or Lexiscan (1 μM) for 1 h. Cells were washed with PBS, fixed with 4% paraformaldehyde, and permeabilized with 0.5% Triton-X in PBS. Cells were blocked with PBS/BSA/goat serum and then stained with antibodies (Invitrogen) against either ZO-1 (1A12), Claudin-5 (34-1600), or Occludin (3F10). Following a wash step, cells were incubated with either goat anti-rabbit IgTexas Red-X or goat anti-mouse IgCy5 (Invitrogen). Cover slips were washed and mounted on slides with ProlongGold containing DAPI. Images were obtained on a Zeiss Axio Imager M1 fluorescent microscope.

[7] = mice, single i.v. injection (0.05 mg/kg)

Compound: CNC(=O)c1cnn(-c2nc(N)c3ncn([C@@H]4O[C@H](CO)[C@@H](O)[C@H]4O)c3n2)c1 [Lexiscan]
- magnitude of increased BBB permeability compared with NECA (blood brain barrier [1]; i.v. administration): much greater than the magnitude of increased permeability after NECA administration
- BBB permeability to 10,000 Da dextrans (blood brain barrier [1]; mice, i.v. administration): increase BBB permeability to 10,000 Da dextrans
- time by which BBB permeability returned to baseline (blood brain barrier [1]; [7]): ≤ 180 min
- time of maximum increased BBB permeability (blood brain barrier [1]; [7]): 30 min
- time after which FITC-dextran was detectable in the brain (blood brain barrier [1]; mice, single injection): 5 min
- labeled-dextran levels in brain (blood brain barrier [2]; 3 injections over 15 min): dramatically high levels of labeled-dextran
- increase in labeled-dextran, multiple doses compared to single injections (blood brain barrier [2]; 3 injections vs single injection): more than 20 fold
- BBB permeability (blood brain barrier [2]; i.v. administration): increased BBB permeability in rats
- TEER (Bend.3 cells [3]): decreases in TEER
- rate of fluorescently-labeled albumin uptake (Bend.3 cells [4]): did not affect the rate of fluorescently-labeled albumin uptake
- actinomyosin stress fiber formation (Bend.3 cells [5]): marked induction of actinomycin stress fibers
- ZO-1 and claudin-5 expression (Bend.3 cells [6]): discreet alterations in ZO-1 and claudin-5
- occludin expression (Bend.3 cells [6]): severely diminished occludin expression
